Test results reported in patent publication US20240103005A1, “N-ACRYLOYLINDOLES AND METHODS OF USE” (The University of Hong Kong, priority 2022, published 2024).

What was measured:
[1] = test system: 231MFP cells; experiment: WST-8 cell viability assay; assay type: cell-based
Protocol: WST-8 Cell Viability Assay of Cells Treated with NAIA-4 or IAA
231MFP cells were plated on 96-well plates (Corning, 3904) at 30,000 cells per well and allowed to grow in complete medium overnight. The cells were then incubated with DMSO solvent control, NAIA-4 or IAA at indicated concentrations for 2 h. The solution was replaced with new culture medium containing 10 μL of WST-8 solution (Abcam; ab228554) and incubated for 2 h in dark at 37° C. Cell viability were then assayed by the absorption at 460 nm on SpectraMax i3 (Molecular Devices).

[2] = test system: HepG2 cell lysates; experiment: MS-based ABPP to identify liganded cysteines in HepG2 cell lysates; assay type: biochemical, human; conditions: 10 μM, 1 h
Protocol: MS-Based ABPP Experiments to Identify Liganded Cysteines in HepG2 Cell Lysates by NAIA-5 or IAA.
HepG2 cells were lysed in PBS by sonication. After BCA assay and protein normalization, HepG2 cell lysates in PBS (2 mg/mL, 2 mL) were incubated with NAIA-5 and IAA (10 μM), respectively, at room temperature for 1 h with vortexing. Then, the samples were incubated with a master mix solution for CuAAC reaction, containing CuSO4, TBTA, DTB-PEG-azide and TECP (final concentrations are 1 mM, 100 μM, 100 μM and 1 mM respectively). After incubation at room temperature for 1 h with vortexing, pre-chilled acetone (12 mL) was added to the samples and proteins were allowed to precipitate out by storing at −20° C. overnight. The samples were centrifuged at 5,000 g at 4° C. for 10 min, and the supernatant was discarded. The protein pellets labeled by NAIA-5 and IAA were then combined and washed with pre-chilled methanol twice. The protein pellets were then re-dispersed in 1.2% SDS in PBS (w/v), followed by heating at 80° C. for 5 min. Any insoluble solids were discarded by centrifugation at 6,500 g for 5 min, and the supernatant were transferred to PBS solution containing Pierce™ Streptavidin Agarose beads (20349; Thermo Scientific) with final concentration of SDS equal to 0.2% (w/v). The samples and beads were incubated at 4° C. with rotation overnight. […]

[3] = test system: HepG2 cells; experiment: MS-based ABPP, live-cell cysteine labeling of HepG2 cells; design: species or system human; conditions: 10 μM, 1 h
Protocol: MS-Based ABPP Experiments to Identify Liganded Cysteines in HepG2 Cells by Live-Cell Labeling Using NAIA-5 or IAA.
HepG2 cells were plated on 15 cm tissue culture plates and allowed to grow in complete medium at 37° C. with 5% CO2 to ca. 80% confluency. The cells were then treated with NAIA-5 and IAA (10 μM), respectively, in complete medium and incubated at 37° C. with 5% CO2 for 1 h. The cells were washed, scrapped in PBS and lysed by sonication. After BCA assay, the cell lysates were diluted to 2 mg/mL, and 2 mL of the lysates were used for n=1 sample preparation. The lysates were then subjected to CuAAC reaction with DTB-PEG-azide, acetone precipitation, enrichment by streptavidin beads, reduction by TCEP followed by cysteine carbamidomethylation and tryptic digestion according to the same procedure described for the sample preparation of HepG2 cell lysate experiment except no pairing of the NAIA-5- and IAA-labeled samples. The probe-modified peptides were then eluted by elution buffer solution (MeCN/H2O, 1:1, v/v; with 0.1% formic acid), dried, desalted by C18 Stage tips and sent for LC-MS/MS analysis using Aurora C18 UHPLC column (75 μm i.d.×25 cm length×1.6 μm particle size; IonOpticks, Australia) coupled to timsTOF Pro mass spectrometer (Bruker), with the same experimental settings as described for the experiment on HepG2 cell lysates. […]

| SMILES | cytotoxicity (in words) [1] | off-target labeling onto other amino acids [2] | number of labeled cysteines in live cells compared with IAA [3] |
| --- | --- | --- | --- |
| C#CCCCCNC(=O)CI [IAA, N-Hex-5-ynyl-2-iodoacetamide, reference compound] | high cellular cytotoxicity |  |  |
| C#CCCCCNC(=O)COc1ccc2c(ccn2C(=O)C=C)c1 [NAIA-5] |  | less undesired off-target labeling onto other amino acids as compared to IAA | higher number of labeled cysteines than IAA |
